The results in this text go back to patent publication US11739068B2, “Polymorphs of N-[(3-fluoro-4-methoxypyridin-2-yl)methyl]-3-(methoxymethyl)-1-({4-[(2-oxopyridin-1-yl)methyl]phenyl}methyl)pyrazole-4-carboxamide and salts thereof” (KALVISTA PHARMACEUTICALS LIMITED, priority 2016, dated 2023).

What all share (assay type): physicochemical
A short description of data set [1]: Visual aqueous solubility. The method, then: Form 1 (10 mg) was weighed into a glass vial and water was added in 100 μL portions up to 3 mL then 1 mL portions thereafter. Solubility was assessed visually following a brief period of equilibration.
Form 18 (10 mg) was weighed into a glass vial and water was added in 100 μL portions up to 3 mL then 1 mL portions thereafter. Solubility was assessed visually following a brief period of equilibration.
Form 8 (10 mg) was weighed into a glass vial and water was added in 100 μL portions up to 3 mL then 1 mL portions thereafter. Solubility was assessed visually following a brief period of equilibration.
Form 15 (10 mg) was weighed into a glass vial and water was added in 100 μL portions up to 3 mL then 1 mL portions thereafter. Solubility was assessed visually following a brief period of equilibration.
Form 16 (10 mg) was weighed into a glass vial and water was added in 100 μL portions up to 3 mL then 1 mL portions thereafter. Solubility was assessed visually following a brief period of equilibration.

A short description of data set [2]: Gravimetric Vapour Sorption (GVS). The method, then:
Gravimetric Vapour Sorption (GVS) data were collected using the following method: Approximately 10 mg of sample was placed into a wire-mesh vapour sorption balance pan and loaded into an ‘IgaSorp’ vapour sorption balance (Hiden Analytical Instruments). The sample was then dried by maintaining a 0% humidity environment until no further weight change was recorded. Subsequently, the sample was then subjected to a ramping profile from 0-90% RH at 10% RH increments, maintaining the sample at each step until equilibration had been attained (99% step completion). Upon reaching equilibration, the % RH within the apparatus was ramped to the next step and the equilibration procedure repeated. After completion of the sorption cycle, the sample was then dried using the same procedure. The weight change during the sorption/desorption cycles were then monitored, allowing for the hygroscopic nature of the sample to be determined.

A further data set is described as follows: Slurry studies. The note with it: 72 hrs; for XRPD of solid after slurry versus starting form: 90/10 IPA/water, ambient temperature. The method, then: Form 1 (20 mg) was suspended in 90/10 IPA/water (200 μL or […]) and shaken at ambient temperature for 72 hrs. The supernatant was evaporated rather than filtered due to the small volume and the resulting solid was examined by XRPD (FIG. 6).
The supernatant was evaporated rather than filtered due to the small volume and the resulting solid was examined by XRPD (FIG. 28).
The supernatant was evaporated rather than filtered due to the small volume and the resulting solid was examined by XRPD (FIG. 34).
The supernatant was evaporated rather than filtered due to the small volume and the resulting solid was examined by XRPD (FIG. 40).

Consider `COCc1nn(Cc2ccc(Cn3ccccc3=O)cc2)cc1C(=O)NCc1nccc(OC)c1F.O=S(=O)(O)O` [Form 8, N-[(3-fluoro-4-methoxypyridin-2-yl)methyl]-3-(methoxymethyl)-1-({4-[(2-oxopyridin-1-yl)methyl]phenyl}methyl)pyrazole-4-carboxamide sulfate], for which the “Aqueous solubility (in words)” value in data set [1] is given as “excellent aqueous solubility”. In data set [1] (water, thermodynamic from solid), the solubility (usually the dissolved amount per volume that the medium holds) is about 100 mg/mL. The “%-Wt (dry basis)” value in data set [2] (adsorption, about 0 %-RH) is listed as 0.03946%; in data set [2] (adsorption, about 10 %-RH) it was 0.4404%; in data set [2] (adsorption, about 20 %-RH) it was 0.6163%; in data set [2] (adsorption, about 30 %-RH), 0.7771%; in data set [2] (adsorption, about 40 %-RH), 0.6383%; in data set [2] (adsorption, about 50 %-RH), 0.8735%. Besides, the “%-Wt (dry basis)” value in data set [2] (adsorption, about 60 %-RH) was 1.214%; in data set [2] (adsorption, about 70 %-RH), 2.0577%; in data set [2] (adsorption, about 80 %-RH), 3.99%; in data set [2] (adsorption, about 90 %-RH) it was 14.16%; in data set [2] (desorption, about 0 %-RH), 0.000552%; in data set [2] (desorption, about 5 %-RH), 0.07837%. Besides, the “%-Wt (dry basis)” value in data set [2] (desorption, about 15 %-RH) worked out at 0.2289%; in data set [2] (desorption, about 25 %-RH) it was 0.3947%; in data set [2] (desorption, about 35 %-RH) it was 0.2459%; in data set [2] (desorption, about 45 %-RH) it was 0.5639%; in data set [2] (desorption, about 55 %-RH) it was 0.9496%; in data set [2] (desorption, about 65 %-RH), 1.643%. Besides, the “%-Wt (dry basis)” value in data set [2] (desorption, about 75 %-RH) stood at 3.436%; in data set [2] (desorption, about 85 %-RH), 6.295%. Further, the “Increase in water content by GVS (hygroscopicity, in words)” value in data set [2] (up to 70% relative humidity) is reported as “only a relatively gradual increase in water content”. Besides, the “XRPD of solid after slurry versus starting form” value in the data set “Slurry studies” was “no change in the X-ray pattern”.
As to `COCc1nn(Cc2ccc(Cn3ccccc3=O)cc2)cc1C(=O)NCc1nccc(OC)c1F.Cl` [Form 18, N-[(3-fluoro-4-methoxypyridin-2-yl)methyl]-3-(methoxymethyl)-1-({4-[(2-oxopyridin-1-yl)methyl]phenyl}methyl)pyrazole-4-carboxamide hydrochloride], the “%-Wt (dry basis)” value was found to be 0.000338% in data set [2] (adsorption, about 0 %-RH); 0.2364% in data set [2] (adsorption, about 10 %-RH); 0.3723% in data set [2] (adsorption, about 20 %-RH); 0.5037% in data set [2] (adsorption, about 30 %-RH); 0.6618% in data set [2] (adsorption, about 40 %-RH); 0.9246% in data set [2] (adsorption, about 50 %-RH). Also, the “%-Wt (dry basis)” value in data set [2] (adsorption, about 60 %-RH) came out at 9.109%; in data set [2] (adsorption, about 70 %-RH) it was 9.603%; in data set [2] (adsorption, about 80 %-RH), 13.9262%; in data set [2] (adsorption, about 90 %-RH), 66.83%; in data set [2] (desorption, about 0 %-RH), 0.35%; in data set [2] (desorption, about 5 %-RH), 2.227%. The “%-Wt (dry basis)” value worked out at 3.448% in data set [2] (desorption, about 15 %-RH); 4.993% in data set [2] (desorption, about 25 %-RH); 7.125% in data set [2] (desorption, about 35 %-RH); 9.624% in data set [2] (desorption, about 45 %-RH); 12.7659% in data set [2] (desorption, about 55 %-RH); 17.34% in data set [2] (desorption, about 65 %-RH). Also, the “%-Wt (dry basis)” value came out at 24.5% in data set [2] (desorption, about 75 %-RH) and 40.16% in data set [2] (desorption, about 85 %-RH). The “XRPD of solid after slurry versus starting form” value in the data set “Slurry studies” is “different to that of Form 18”.
“N-[(3-fluoro-4-methoxypyridin-2-yl)methyl]-3-(methoxymethyl)-1-({4-[(2-oxopyridin-1-yl)methyl]phenyl}methyl)pyrazole-4-carboxamide edisylate [Form 15]”: in data set [1] (water, assessed visually), the Aqueous solubility (commonly how much of the substance goes into solution per volume) is about 100 mg/mL. Also, the “Aqueous solubility, repeat using less water” value in data set [1] (water, dissolved in 0.05 mL) was over 200 mg/mL. Further, the “Result of water slurry” value in “Slurry studies” (20 mg in deionised water (200 μL)) was “complete dissolution of the sample”. In addition, the “XRPD of solid after slurry versus starting form” value in the data set “Slurry studies” is “no differences in X-ray pattern”.
On to “N-[(3-fluoro-4-methoxypyridin-2-yl)methyl]-3-(methoxymethyl)-1-({4-[(2-oxopyridin-1-yl)methyl]phenyl}methyl)pyrazole-4-carboxamide edisylate [Form 16]”, for which the “%-Wt (dry basis)” value in data set [2] (adsorption, about 0 %-RH) is 1.612%; in data set [2] (adsorption, about 10 %-RH), 2.367%; in data set [2] (adsorption, about 20 %-RH), 2.626%; in data set [2] (adsorption, about 30 %-RH) it was 2.834%; in data set [2] (adsorption, about 40 %-RH) it was 3.045%; in data set [2] (adsorption, about 50 %-RH), 3.351%. Moreover, the “%-Wt (dry basis)” value in data set [2] (adsorption, about 60 %-RH) came out at 7.516%; in data set [2] (adsorption, about 70 %-RH), 9.935%; in data set [2] (adsorption, about 80 %-RH), 15.98%; in data set [2] (adsorption, about 90 %-RH), 94.26%; in data set [2] (desorption, about 0 %-RH), 0.00047%; in data set [2] (desorption, about 5 %-RH), 2.866%. In addition, the “%-Wt (dry basis)” value in data set [2] (desorption, about 15 %-RH) is recorded as 4.495%; in data set [2] (desorption, about 25 %-RH), 6.541%; in data set [2] (desorption, about 35 %-RH), 9.564%; in data set [2] (desorption, about 45 %-RH) it was 12.94%; in data set [2] (desorption, about 55 %-RH) it was 17.21%; in data set [2] (desorption, about 65 %-RH), 23.22%. The “%-Wt (dry basis)” value amounted to 33.16% in data set [2] (desorption, about 75 %-RH) and 57.4% in data set [2] (desorption, about 85 %-RH).
